Where two headings read alike, the source gives them in different places.
Assays:
[1] = Volatility of compounds measured by thermogravimetric analysis (TGA), rate of weight loss; type: physicochemical; details: estimates of volatility
Text: Briefly, the rate of weight loss measured in units of […]g/min can be used to determine vapor pressure as shown by the simplified equation: wherein, k is the intrinsic volatility and A is the surface area, Referring now to FIG. 2. A graph of weight loss as function of time for solid samples produces a linear curve; the slope of the curve is the rate of weight loss. When this method is used to measure the volatility of aqueous salt concentrates or liquid concentrates, the water or acetone present in the sample volatilizes before the sample of interest. The first linear loss region of the curve is the loss of water or acetone and the second linear region is characteristic of the sample of interest. In order to illustrate the difference in volatility between some of the compounds disclosed herein and the widely used herbicide dicamba, data from both the compounds and dicamba are presented Table 3 and in FIG. 1.

Amaranthus rudis (AMATA) = test: Postemergence herbicide evaluation, percent reduction in plant size vs untreated control, 21 days after treatment; type: in vivo, Amaranthus rudis (tall water hemp); details: Amaranthus tuberculatus, post-emergence, 504 h, AMATA, postemergence, read-out: Control/Injury; for pest or weed control at 140 g/ha: rate 140 g ae/ha; for pest or weed control at 280 g/ha: rate 280 g ae/ha
Summary of the method: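 Greenhouse-grown tall waterhemp (25-28° C, 16 h light) at the 2-8 leaf stage, treated by track sprayer at 187 L/ha with compound at 140 or 280 g ae/ha in acetone/DMSO-based spray solution with crop oil and surfactant. 3-4 replicates per treatment, randomized complete block; plant size reduction versus untreated control measured 21 days after treatment.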

[2] = system: Ambrosia artemisiifolia (AMBEL); test: as above; type: in vivo, Ambrosia artemisiifolia (common ragweed); details: post-emergence, 504 h, AMBEL, postemergence, read-out: Control/Injury; for pest or weed control at 140 g/ha: rate 140 g ae/ha; for pest or weed control at 280 g/ha: rate 280 g ae/ha
Summary of the method: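 Greenhouse-grown plants (25–28 °C, 16 h light) were sprayed postemergence at the 2–8 leaf stage with 140 or 280 g ae/ha in acetone/DMSO-based spray solution with crop oil and surfactant, at 187 L/ha by track sprayer. There were 3–4 replicates. Plant size was measured 21 days after treatment versus untreated plants.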

Kochia scoparia (KCHSC) = test: as above; type: in vivo; details: Bassia scoparia, post-emergence, 504 h, KCHSC, postemergence, 21 days after treatment, read-out: Control/Injury; for pest or weed control at 140 g/ha: rate 140 g ae/ha; for pest or weed control at 280 g/ha: rate 280 g ae/ha
Summary of the method: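 Greenhouse-grown plants (25-28 °C, 16 h light) at the 2 to 8 leaf stage were track-sprayed postemergence at 140 or 280 g ae/ha in acetone/DMSO-based spray solution with crop oil and surfactant, at 187 L/ha, in 3-4 randomized replicates.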

[3] = system: Amaranthus palmeri (AMAPA); test: as above; type: in vivo, Amaranthus palmeri (Palmer amaranth); details: post-emergence, 504 h, postemergence, read-out: Control/Injury; for pest or weed control at 140 g/ha: rate 140 g ae/ha; for pest or weed control at 280 g/ha: rate 280 g ae/ha
Summary of the method: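 Greenhouse-grown Palmer amaranth (25 to 28° C, 16 h light) sprayed postemergence at the 2 to 8 leaf stage with 140 or 280 g ae/ha in acetone/DMSO-based solution containing crop oil concentrate, 187 L/ha by track sprayer. Three to four replicates; plant size measured 21 days after treatment as percent reduction versus untreated control.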

[4] = system: Conyza canadensis (L.) (ERICA); test: as above; type: in vivo, Conyza canadensis (L.) (Horseweed); details: Erigeron canadensis, post-emergence, 504 h, ERICA, postemergence, read-out: Control/Injury; for pest or weed control at 140 g/ha: rate 140 g ae/ha; for pest or weed control at 280 g/ha: rate 280 g ae/ha
Summary of the method: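 Horseshoe-weed (horseweed) seedlings at 2 to 8 leaf stage in greenhouse (25-28° C, 16 h light), sprayed postemergence at 140 or 280 g ae/ha in acetone/DMSO-based spray solution, 187 L/ha track-sprayer. Randomized complete block, 3-4 replicates; plant size measured 21 days after treatment as percent reduction vs untreated controls.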

Glycine max = test: whole plant or invertebrate; details: Glycine max, post-emergence, 504 h, read-out: Control/Injury
Summary of the method: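 Greenhouse soybean (25–28 °C, 16 h light) sprayed post-emergence at 2–8 leaf stage with 140 or 280 g ae/ha in acetone/DMSO-based spray solution with crop oil concentrate, 187 L/ha by track sprayer; 3–4 replicates, randomized blocks. Plant size reduction versus untreated control measured 21 days after treatment.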

[5] = percent reduction vs untreated, 21 days after treatment
[6] = percent reduction vs untreated control
[7] = R-AMAPA, percent reduction vs untreated control, 21 days after treatment
[8] = percent reduction vs untreated control, 21 days after treatment

SMILES	Volatility [1] [ng/min]	pest or weed control at 140 g/ha (Amaranthus rudis (AMATA)) [%]	pest or weed control at 280 g/ha (Amaranthus rudis (AMATA)) [%]	pest or weed control at 140 g/ha [2] [%]	pest or weed control at 280 g/ha [2] [%]	pest or weed control at 140 g/ha (Kochia scoparia (KCHSC); percent reduction vs untreated) [%]	pest or weed control at 280 g/ha (Kochia scoparia (KCHSC); percent reduction vs untreated) [%]	pest or weed control at 140 g/ha ([3]; AMAPA) [%]	pest or weed control at 280 g/ha ([3]; AMAPA) [%]	pest or weed control at 140 g/ha [4] [%]	pest or weed control at 280 g/ha [4, 5] [%]	pest or weed control at 140 g/ha [4, 5] [%]	also measured
COc1c(Cl)ccc(Cl)c1C(=O)Nc1ccnn1C [Compound A-134]	0.01	15	8	33	30	0	0	15	15	5	10	–	–
COc1c(Cl)ccc(Cl)c1C(=O)N(C)OC [Compound A-129]	13.4	20	23	10	15	0	5	8	20	38	–	–	pest or weed control at 280 g/ha [4]: 0%
CCCC[C@H](CC)COC(=O)c1c(Cl)ccc(Cl)c1OC [Compound A-137]	3.42	1	8	33	36	6	3	15	15	–	0	0	–
COc1c(Cl)ccc(Cl)c1C(=O)O/N=C(\SC)c1ccccc1 [Compound A-85]	0.28	57	73	67	78	–	–	–	–	–	–	–	pest or weed control at 140 g/ha (Kochia scoparia (KCHSC); [6]): 95%; pest or weed control at 280 g/ha (Kochia scoparia (KCHSC); [6]): 97%; pest or weed control at 140 g/ha [3, 7]: 68%; pest or weed control at 280 g/ha [3, 7]: 72%; pest or weed control at 140 g/ha [4, 8]: 37%; pest or weed control at 280 g/ha [4, 8]: 68%; plant injury at 140 g/ha (Glycine max): 5%; plant injury at 280 g/ha (Glycine max): 7%
COc1c(Cl)ccc(Cl)c1C(=O)Oc1cc2ccccc2n1C [Compound A-117]	0.04	85	85	90	97	80	98	83	89	–	95	98	–
COc1c(Cl)ccc(Cl)c1C(=O)NOCc1ccccc1 [Compound A-98]	0.08	18	13	20	15	8	0	23	20	2	–	–	pest or weed control at 280 g/ha [4]: 3%
COc1c(Cl)ccc(Cl)c1C(=O)O/N=C/c1ccco1 [Compound A-88]	0.35	72	80	70	82	–	–	–	–	–	–	–	pest or weed control at 140 g/ha (Kochia scoparia (KCHSC); [6]): 87%; pest or weed control at 280 g/ha (Kochia scoparia (KCHSC); [6]): 94%; pest or weed control at 140 g/ha [3, 7]: 67%; pest or weed control at 280 g/ha [3, 7]: 68%; pest or weed control at 140 g/ha [4, 8]: 75%; pest or weed control at 280 g/ha [4, 8]: 94%; plant injury at 140 g/ha (Glycine max): 10%; plant injury at 280 g/ha (Glycine max): 3%
COc1c(Cl)ccc(Cl)c1C(=O)O/N=C(/C)N [Compound A-136]	0.086	68	74	87	96	76	94	85	90	–	99	94	–
COc1c(Cl)ccc(Cl)c1C(=O)O/N=C(\N)c1ccc2ccccc2c1 [Compound A-138]	0.008	65	64	79	76	91	91	73	59	–	70	75	–
